Experimental data reported in US20100267697A1, “ION CHANNEL MODULATORS” (Wyeth, priority 2006, published 2010).
Where a name gives a salt, the structure may show the parent alone. Read-outs that look alike come from different tables or passages of the source.

Target: T1, Cav2.2 (Homo sapiens, UniProt Q00975)
T1 construct: expressed in transfected cells; host or cells: HEK-293T/17 (transient, FuGENE 6)
Test: HEK assay (whole-cell patch clamp, transiently transfected HEK-293T/17 cells, pulses P1 and P5)
Type: cell-based
Details: holding potential −100 mV
Description: HEK-293T/17 cells were transiently transfected in a similar manner as described in FuGENE 6 Package Insert Version 7, April 2002, Roche Applied Science, Indianapolis, Ind. The cells were plated at 2.5×10^5 cells in 2 mL in a 6-well plate, incubated for one night, and achieved a ˜30-40% confluence. In a small sterile tube, sufficient serum-free medium was added as diluent for FuGENE Transfection Reagent (Roche Applied Science, Indianapolis, Ind.) to a total volume of 100 μL. To this medium was added 3 μL of FuGENE 6 Reagent. The mixture was tapped gently to mix. To the prediluted FuGENE 6 Reagent was added 2 μg of DNA solution (0.8-2.0 μg/μL). The DNA/Fugene 6 mixture was gently pipeted to mix the contents and incubated for about 15 minutes at room temperature. The complex mixture was then added to the HEK-293T/17 cells, distributed around the well, and swirled to ensure even dispersal. The cells were returned to the incubator for 24 hours. The transfected cells were then replated at density 2.5×10^5 in a 35 mm dish with 5 glass coverslips and grew in low serum (1%) media for 24 hours. Coverslips with isolated cells were then transferred into a chamber, and calcium channel (e.g., L-type, N-type, etc.) current or other currents for counter screening were recorded from the transiently transfected HEK-293T/17 cells.
The whole-cell voltage clamp configuration of the patch clamp technique was employed to evaluate voltage-dependent calcium currents essentially as described by Thompson and Wong (1991), J. Physiol., 439: 671-689, the entire disclosure of which is herein incorporated by reference. To record calcium channel (e.g., L-type, N-type, etc.) currents for evaluation of inhibitory potency of compounds (steady-state concentration-response analysis), five pulses of 20-30 ms voltage steps to about +10 mV (the peak of the current voltage relationship) were delivered at five Hz every 30 second from a holding potential at −100 mV. In order to obtain an estimate of the degree of use-dependent block of the test compounds, IC50 values were determined at the first and fifth pulse of the train (P1 and P5, respectively, in Table 2). Compound evaluations were carried out essentially as described by Sah D. W. and Bean B. P. (1994), Mol. Pharmacol., 45:84-92, the entire disclosure of which is herein incorporated by reference.

[1] = fifth pulse (P5) of 5 Hz train, read-out: HEK Cav2.2 P5 IC50
[2] = first pulse (P1) of 5 Hz train, read-out: HEK Cav2.2 P1 IC50

T1 sequence (Q00975 whole entry): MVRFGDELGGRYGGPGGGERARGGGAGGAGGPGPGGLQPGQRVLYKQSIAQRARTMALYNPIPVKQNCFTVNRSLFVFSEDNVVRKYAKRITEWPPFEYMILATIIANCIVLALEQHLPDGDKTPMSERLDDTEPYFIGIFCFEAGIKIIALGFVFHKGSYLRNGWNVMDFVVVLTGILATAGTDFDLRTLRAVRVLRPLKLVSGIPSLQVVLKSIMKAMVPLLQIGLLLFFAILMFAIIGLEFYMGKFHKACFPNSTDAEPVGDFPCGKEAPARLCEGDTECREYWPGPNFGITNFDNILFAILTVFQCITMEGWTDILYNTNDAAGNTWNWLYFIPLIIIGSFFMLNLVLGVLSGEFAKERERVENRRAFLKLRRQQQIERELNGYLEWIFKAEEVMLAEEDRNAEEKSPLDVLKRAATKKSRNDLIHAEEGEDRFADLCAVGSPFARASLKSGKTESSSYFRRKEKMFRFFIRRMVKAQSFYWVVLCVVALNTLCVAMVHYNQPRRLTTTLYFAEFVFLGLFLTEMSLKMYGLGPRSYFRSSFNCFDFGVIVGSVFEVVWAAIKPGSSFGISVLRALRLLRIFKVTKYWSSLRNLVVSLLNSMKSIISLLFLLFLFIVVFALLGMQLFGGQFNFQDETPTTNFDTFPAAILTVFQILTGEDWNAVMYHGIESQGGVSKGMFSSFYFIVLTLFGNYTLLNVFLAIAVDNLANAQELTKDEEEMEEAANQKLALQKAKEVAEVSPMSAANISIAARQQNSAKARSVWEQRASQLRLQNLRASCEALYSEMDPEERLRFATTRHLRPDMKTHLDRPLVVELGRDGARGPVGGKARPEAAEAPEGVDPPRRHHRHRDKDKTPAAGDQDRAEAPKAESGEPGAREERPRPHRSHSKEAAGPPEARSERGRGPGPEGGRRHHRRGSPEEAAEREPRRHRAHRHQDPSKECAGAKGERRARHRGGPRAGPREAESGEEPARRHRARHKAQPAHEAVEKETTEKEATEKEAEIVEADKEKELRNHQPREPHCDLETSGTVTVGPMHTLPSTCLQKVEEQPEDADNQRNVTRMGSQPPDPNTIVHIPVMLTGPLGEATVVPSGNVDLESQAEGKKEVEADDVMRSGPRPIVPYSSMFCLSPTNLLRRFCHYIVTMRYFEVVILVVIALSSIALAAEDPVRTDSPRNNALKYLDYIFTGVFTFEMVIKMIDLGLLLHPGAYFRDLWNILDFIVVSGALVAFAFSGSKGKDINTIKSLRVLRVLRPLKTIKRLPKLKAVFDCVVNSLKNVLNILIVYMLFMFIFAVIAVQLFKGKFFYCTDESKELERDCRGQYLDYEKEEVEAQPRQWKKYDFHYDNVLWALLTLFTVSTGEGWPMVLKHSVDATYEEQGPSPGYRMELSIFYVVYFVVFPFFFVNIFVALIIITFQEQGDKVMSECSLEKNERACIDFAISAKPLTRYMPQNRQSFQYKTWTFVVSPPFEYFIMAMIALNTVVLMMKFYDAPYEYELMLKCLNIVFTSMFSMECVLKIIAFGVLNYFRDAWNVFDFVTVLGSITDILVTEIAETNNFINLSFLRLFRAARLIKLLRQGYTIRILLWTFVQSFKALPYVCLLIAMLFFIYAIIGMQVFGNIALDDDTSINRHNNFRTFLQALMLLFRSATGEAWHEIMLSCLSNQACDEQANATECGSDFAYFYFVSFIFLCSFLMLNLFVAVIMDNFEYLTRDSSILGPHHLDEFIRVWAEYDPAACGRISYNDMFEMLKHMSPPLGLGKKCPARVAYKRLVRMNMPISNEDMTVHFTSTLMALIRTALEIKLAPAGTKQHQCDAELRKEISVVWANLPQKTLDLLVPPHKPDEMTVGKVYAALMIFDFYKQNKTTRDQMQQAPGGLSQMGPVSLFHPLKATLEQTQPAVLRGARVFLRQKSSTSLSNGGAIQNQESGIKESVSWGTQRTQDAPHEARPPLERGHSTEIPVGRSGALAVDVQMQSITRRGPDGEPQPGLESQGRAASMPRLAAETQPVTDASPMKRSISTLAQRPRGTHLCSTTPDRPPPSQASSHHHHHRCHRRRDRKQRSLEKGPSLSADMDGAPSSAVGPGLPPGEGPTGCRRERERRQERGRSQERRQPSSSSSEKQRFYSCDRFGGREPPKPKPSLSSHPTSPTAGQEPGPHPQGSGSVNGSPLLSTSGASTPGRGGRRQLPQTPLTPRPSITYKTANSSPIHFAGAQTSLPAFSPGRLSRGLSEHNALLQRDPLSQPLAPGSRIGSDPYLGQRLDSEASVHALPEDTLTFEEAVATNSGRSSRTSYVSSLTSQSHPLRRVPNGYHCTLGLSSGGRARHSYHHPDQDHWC
T1 sequence (P54284 whole entry partner): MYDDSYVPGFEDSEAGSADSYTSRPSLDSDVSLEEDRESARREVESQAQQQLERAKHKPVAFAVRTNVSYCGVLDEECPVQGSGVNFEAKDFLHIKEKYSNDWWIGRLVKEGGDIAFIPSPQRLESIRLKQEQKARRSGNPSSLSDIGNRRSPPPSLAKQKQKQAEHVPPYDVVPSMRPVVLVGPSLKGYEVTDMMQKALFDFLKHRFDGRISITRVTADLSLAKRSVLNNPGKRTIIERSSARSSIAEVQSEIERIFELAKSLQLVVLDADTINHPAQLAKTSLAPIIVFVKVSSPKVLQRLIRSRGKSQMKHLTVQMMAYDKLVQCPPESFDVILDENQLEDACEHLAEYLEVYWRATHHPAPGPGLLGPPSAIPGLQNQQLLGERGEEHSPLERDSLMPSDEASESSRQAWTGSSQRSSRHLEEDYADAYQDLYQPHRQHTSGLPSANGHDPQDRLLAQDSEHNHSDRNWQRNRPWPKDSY
T1 sequence (P54289 25-946 partner limits assumed): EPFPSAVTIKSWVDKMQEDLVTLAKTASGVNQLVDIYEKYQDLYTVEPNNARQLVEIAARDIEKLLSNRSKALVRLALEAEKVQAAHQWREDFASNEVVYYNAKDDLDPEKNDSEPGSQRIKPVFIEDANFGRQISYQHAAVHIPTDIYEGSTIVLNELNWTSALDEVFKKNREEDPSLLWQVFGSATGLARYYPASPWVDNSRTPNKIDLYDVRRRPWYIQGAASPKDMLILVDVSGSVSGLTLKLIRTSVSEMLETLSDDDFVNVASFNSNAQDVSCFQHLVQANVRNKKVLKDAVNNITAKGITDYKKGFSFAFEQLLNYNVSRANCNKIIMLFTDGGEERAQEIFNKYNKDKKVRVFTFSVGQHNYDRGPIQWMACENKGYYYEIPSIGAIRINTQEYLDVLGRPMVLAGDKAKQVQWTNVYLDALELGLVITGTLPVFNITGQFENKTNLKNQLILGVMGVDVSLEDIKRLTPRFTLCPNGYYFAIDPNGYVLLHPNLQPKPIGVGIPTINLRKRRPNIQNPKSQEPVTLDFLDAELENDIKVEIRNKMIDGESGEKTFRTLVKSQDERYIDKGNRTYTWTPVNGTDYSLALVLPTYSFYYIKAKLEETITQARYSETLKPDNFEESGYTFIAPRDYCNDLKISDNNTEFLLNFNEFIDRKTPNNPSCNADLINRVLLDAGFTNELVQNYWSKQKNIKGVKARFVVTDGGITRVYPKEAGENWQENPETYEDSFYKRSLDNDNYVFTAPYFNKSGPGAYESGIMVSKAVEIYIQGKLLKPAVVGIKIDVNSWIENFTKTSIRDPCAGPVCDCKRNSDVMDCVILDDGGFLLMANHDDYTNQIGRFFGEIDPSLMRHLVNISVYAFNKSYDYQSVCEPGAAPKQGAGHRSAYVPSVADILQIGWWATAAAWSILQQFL
T1 sequence (P54289 947-1103 partner limits assumed): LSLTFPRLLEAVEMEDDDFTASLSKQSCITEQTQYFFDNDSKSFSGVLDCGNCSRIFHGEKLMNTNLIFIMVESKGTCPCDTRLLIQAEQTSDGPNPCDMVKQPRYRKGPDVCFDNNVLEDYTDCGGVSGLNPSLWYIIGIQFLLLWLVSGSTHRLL

Compound	IC50 [1] [µM]	IC50 [2] [µM]
Cc1ccc(OCCN(C)c2ccc(CN(C(=O)C(C)(C)C)c3ccc(F)cc3)cn2)nc1 [Compound 39, N-(4-Fluorophenyl)-2,2-dimethyl-N-(6-{methyl-[2-(5-methyl-pyridin-2-yloxy)-ethyl]-amino}-pyridin-3-ylmethyl)-propionamide]	0.5	1
CCN(CC)c1ccc(CN(C(=O)C(C)(C)C)c2ccc(F)cc2C)cn1 [Compound 36, N-(6-Diethylamino-pyridin-3-ylmethyl)-N-(4-fluoro-2-methyl-phenyl)-2,2-dimethyl-propionamide]	1.3	3.5
CCN(c1ccc(CN(C(=O)CCC(C)C)c2ccc(F)cc2)cn1)C1CC1 [Compound 13, 4-methyl-pentanoic acid [6-(Cyclopropyl(ethyl)amino)-pyridin-3-ylmethyl]-(4-fluorophenyl)-amide hydrochloride]	1.8	
CC(C)(C)C(=O)N(Cc1ccc(N2CCCC2CO)nc1)c1ccc(F)cc1 (stereo not drawn) [Compound 48, N-(4-Fluorophenyl)-N-[6-(2-hydroxymethyl-pyrrolidin-1-yl)-pyridin-3-ylmethyl]-2,2-dimethyl-propionamide]	4.2	19.8
CC(C)(C)C(=O)N(Cc1ccc(N2CC[C@H](Oc3ccccn3)C2)nc1)c1ccc(F)cc1 (stereo in doubt) [Compound 50, N-(4-Fluorophenyl)-2,2-dimethyl-N-{6-[3-(pyridin-2-yloxy)-pyrrolidin-1-yl]-pyridin-3-ylmethyl}-propionamide]	0.8	3.7
CCN(c1ccc(CN(C(=O)C2CCN(Cc3ccccc3)CC2)c2ccc(F)cc2)cn1)C1CC1 [Compound 12, 1-benzyl-piperidine-4-carboxylic acid [6-(Cyclopropyl(ethyl)amino)-pyridin-3-ylmethyl]-(4-fluorophenyl)-amide dihydrochloride]	0.4	1
CCN(CC)c1ccc(CN(C(=O)C(C)(C)C)c2ccc(F)cc2)cc1 [Compound 5, N-(4-Diethylaminobenzyl)-N-(4-fluorophenyl)-2,2-dimethyl-propionamide hydrochloride]	1.1	2.9
CCN(Cc1ccncc1)c1ccc(CN(C(=O)C(C)(C)C)c2ccc(F)cc2)cn1 [Compound 41, N-[6-(Ethyl-pyridin-4-ylmethyl-amino)-pyridin-3-ylmethyl]-N-(4-fluorophenyl)-2,2-dimethyl-propionamide]	2	6.3
CC(CC(=O)N(Cc1ccc(N(C)CCc2ccccn2)nc1)c1ccc(F)cc1)C(F)(F)F (stereo not drawn) [Compound 23, 4,4,4-Trifluoro-N-(4-fluorophenyl)-3-methyl-N-{6-[methyl-(2-pyridin-2-yl-ethyl)-amino]-pyridin-3-ylmethyl}-butyramide]	1.1	
CC(=O)N1CCN(c2ccc(CN(C(=O)C(C)(C)C)c3ccc(F)cc3)cn2)CC1 [Compound 44, N-[6-(4-Acetyl-piperazin-1-yl)-pyridin-3-ylmethyl]-N-(4-fluorophenyl)-2,2-dimethyl-propionamide]	7.5	18.4
CCOC(=O)c1cn(C(C)(C)C(=O)N(Cc2ccc(N(CC)CC)nc2)c2ccc(F)cc2)nn1 [Compound 45, 1-{1-[(6-Diethylamino-pyridin-3-ylmethyl)-(4-fluorophenyl)-carbamoyl]-1-methyl-ethyl}-1H-[1,2,3]triazole-4-carboxylic acid ethyl ester]	2.5	10.6

Other lines, results leading:

IC50 [1] [µM]	IC50 [2] [µM]	Compound
2.5	11.1	O=C(C1CC1)N(Cc1csc(N2CCCCC2)n1)c1ccc(F)cc1 [Compound 107, Cyclopropanecarboxylic acid (4-fluorophenyl)-(2-piperidin-1-yl-thiazol-4-ylmethyl)-amide]
3.1	12.6	CN(C)c1ccc(N(Cc2csc(N3CCCCC3)n2)C(=O)C(C)(C)C)cc1 [Compound 86, N-(4-Dimethylamino-phenyl)-2,2-dimethyl-N-(2-piperidin-1-yl-thiazol-4-ylmethyl)-propionamide]
3.9	14.1	O=C(C1CCCCC1)N(Cc1csc(N2CCOCC2)n1)c1ccc(F)cc1 [Compound 108, Cyclohexanecarboxylic acid (4-fluorophenyl)-(2-morpholin-4-yl-thiazol-4-ylmethyl)-amide]
11	47.3	CC(C)(C)C(=O)N(Cc1csc(-c2ccncc2)n1)c1ccc(F)cc1 [Compound 75, N-(4-Fluorophenyl)-2,2-dimethyl-N-(2-pyridin-4-yl-thiazol-4-ylmethyl)-propionamide]
1.9	5.2	CCN(CC)c1ccc(CN(C(=O)CCC(C)C)c2ccc(N)cc2)cc1 [Compound 98, 4-Methyl-pentanoic acid (4-aminophenyl)-(4-Diethylaminobenzyl)-amide]
0.3	0.6	CC(C)(C)C(=O)N(Cc1ccc(N2CCC(c3nc4ccccc4[nH]3)CC2)nc1)c1ccc(F)cc1 [Compound 53, N-[4-(1H-Benzoimidazol-2-yl)-3,4,5,6-tetrahydro-2H-[1,2′]bipyridinyl-5′-ylmethyl]-N-(4-fluorophenyl)-2,2-dimethyl-propionamide]
0.1	0.3	CN(c1ccc(F)cc1)c1nc(CN(C(=O)C(C)(C)C)c2ccc(F)cc2)cs1 [Compound 79, N-(4-Fluorophenyl)-N-{2-[(4-fluorophenyl)-methyl-amino]-thiazol-4-ylmethyl}-2,2-dimethyl-propionamide]
0.6	2.7	CCN(c1ccc(CN(C(=O)C2CCCN2Cc2ccccc2)c2ccc(F)cc2)cn1)C1CC1 (stereo not drawn) [Compound 115, 1-Benzyl-pyrrolidine-2-carboxylic acid [6-(Cyclopropyl(ethyl)amino)-pyridin-3-ylmethyl]-(4-fluorophenyl)-amide]
2.8	12.8	CN(c1ccc(CN(C(=O)C(C)(C)C)c2ccc(F)cc2)cn1)C1CC1 [Compound 74, N-[6-(Cyclopropyl-methyl-amino)-pyridin-3-ylmethyl]-N-(4-fluorophenyl)-2,2-dimethyl-propionamide]
0.8	1.8	CCN(c1cccc(CN(C(=O)C(C)(C)C)c2ccc(F)cc2)n1)C1CC1 [Compound 92, N-[6-(Cyclopropyl(ethyl)amino)-pyridin-2-ylmethyl]-N-(4-fluorophenyl)-2,2-dimethyl-propionamide]
0.1	0.4	CCN(CC)c1ccc(N(Cc2csc(N(C)c3ccc(F)cc3)n2)C(=O)C(C)(C)C)cc1 [Compound 88, N-(4-Diethylamino-phenyl)-N-{2-[(4-fluorophenyl)-methyl-amino]-thiazol-4-ylmethyl}-2,2-dimethyl-propionamide]
< 0.1	4.3	CCN(CC)c1ccc(CN(C(=O)CCC(C)C)c2ccc(NC)cc2)cc1 [Compound 99, 4-Methyl-pentanoic acid (4-Diethylaminobenzyl)-(4-methylamino-phenyl)-amide]
0.7	1.8	CCN(CC)c1ccc(CN(C(=O)/C=C/C(C)C)c2ccc(N(C)C)cc2)cc1 [Compound 94, 4-Methyl-pent-2-enoic acid (4-Diethylaminobenzyl)-(4-dimethylamino-phenyl)-amide]
5.2	29	CN1CCN(c2ncc(CN(C(=O)C(C)(C)C)c3ccc(F)cc3)s2)CC1 [Compound 76, N-(4-Fluorophenyl)-2,2-dimethyl-N-[2-(4-methyl-piperazin-1-yl)-thiazol-5-ylmethyl]-propionamide]
0.9	4.9	CCN(CCc1cccnc1)c1ccc(CN(C(=O)C(C)(C)C)c2ccc(F)cc2)cn1 [Compound 58, N-{6-[Ethyl-(2-pyridin-3-yl-ethyl)-amino]-pyridin-3-ylmethyl}-N-(4-fluorophenyl)-2,2-dimethyl-propionamide]
0.4	1.1	CCN(CC)c1ccc(N(Cc2cccc(N(CC)C3CC3)c2)C(=O)C(C)(C)C)cc1 [Compound 97, N-[3-(Cyclopropyl(ethyl)amino)-benzyl]-N-(4-diethylamino-phenyl)-2,2-dimethyl-propionamide]
2.3	7.9	CCN(CC)c1nc(CN(C(=O)CCC(C)C)c2ccc(N(C)C)cc2)cs1 [Compound 95, 4-Methyl-pentanoic acid (2-diethylamino-thiazol-4-ylmethyl)-(4-dimethylamino-phenyl)-amide]
